# Measurements published in article PMC7321065, “Discovery of New Schiff Bases Tethered Pyrazole Moiety: Design, Synthesis, Biological Evaluation, and Molecular Docking Study as Dual Targeting DHFR/DNA Gyrase Inhibitors with Immunomodulatory Activity” (Molecules, 2020).
# Like-named read-outs stand apart in the source and are kept apart here.
# How the values were obtained:
# [1] = system: Bacillus subtilis; experiment: Inhibition zone, agar plate diffusion; format: cell-based; conditions: Bs, mm ± standard deviation, sample at 0.5 mg/mL, read-out: Inhibition zone (IZ)
# Summary of the method: (§1)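 Compounds in DMSO, with DMSO as negative control, were tested at 0.5 mg/mL in agar wells cut 10 mm wide.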
# [2] = system: Enterococcus faecalis; experiment: Inhibition zone, agar plate diffusion; format: cell-based; conditions: Ef, mm ± standard deviation, sample at 0.5 mg/mL, read-out: Inhibition zone (IZ)
# Summary of the method: as §1
# [3] = system: Escherichia coli; experiment: Inhibition zone, agar plate diffusion; format: cell-based; conditions: Ec, mm ± standard deviation, sample at 0.5 mg/mL, read-out: Inhibition zone (IZ)
# Summary of the method: as §1
# [4] = system: Pseudomonas aeruginosa; experiment: Inhibition zone, agar plate diffusion; format: cell-based; conditions: Pa, mm ± standard deviation, sample at 0.5 mg/mL, read-out: Inhibition zone (IZ)
# Summary of the method: as §1
# [5] = system: Candida albicans; experiment: Inhibition zone, agar plate diffusion; format: cell-based; conditions: Ca, mm ± standard deviation, sample at 0.5 mg/mL, read-out: Inhibition zone (IZ)
# Summary of the method: as §1
# [6] = system: Staphylococcus aureus; experiment: Inhibition zone, agar plate diffusion; format: cell-based; conditions: Sa, mm ± standard deviation, sample at 0.5 mg/mL, read-out: Inhibition zone (IZ)
# Summary of the method: as §1
# [7] = system: Bacillus subtilis; experiment: MIC/MBC, paper disk diffusion; format: cell-based; conditions: B. subtilis; for MBC: read-out: MBC
# Summary of the method: (§2)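 MIC and MBC were obtained by paper disk diffusion, bacteria grown on nutrient agar and fungi/yeast on Sabouraud agar. MIC is the lowest concentration inhibiting growth.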
# [8] = system: Enterococcus faecalis; experiment: MIC/MBC, paper disk diffusion; format: cell-based; conditions: E. faecalis; for MBC: read-out: MBC; for MIC: read-out: MIC
# Summary of the method: as §2
# [9] = system: Escherichia coli; experiment: MIC/MBC, paper disk diffusion; format: cell-based; conditions: E. coli; for MBC / MIC: Escherichia coli; for MBC: read-out: MBC; for MIC: read-out: MIC
# Summary of the method: as §2
# [10] = system: Pseudomonas aeruginosa; experiment: MIC/MBC, paper disk diffusion; format: cell-based; conditions: P. aeruginosa; for MBC / MIC: Pseudomonas aeruginosa; for MBC: read-out: MBC; for MIC: read-out: MIC
# Summary of the method: as §2
# [11] = system: Salmonella typhi; experiment: MIC/MBC, paper disk diffusion; format: cell-based; conditions: Salmonella enterica, S. typhi; for MBC: read-out: MBC
# Summary of the method: as §2
# [12] = system: Staphylococcus aureus; experiment: MIC/MBC, paper disk diffusion; format: cell-based; conditions: Staphylococcus aureus, S. aureus; for MBC: read-out: MBC; for MIC: read-out: MIC
# Summary of the method: as §2
# [13] = system: Candida albicans; experiment: MIC/MFC, paper disk diffusion; format: cell-based; conditions: for MIC / MFC: Candida albicans; for MFC: read-out: MFC
# Summary of the method: as §2
# [14] = system: Fusarium oxysporum; experiment: MIC/MFC, paper disk diffusion; format: cell-based; conditions: F. oxysporum; for MFC / MIC: Fusarium oxysporum; for MFC: read-out: MFC; for MIC: read-out: MIC
# Summary of the method: as §2
# [15] = system: hepatocellular carcinoma cell line (HepG2); experiment: Antiproliferative activity, MTT assay; format: cell-based, human; conditions: Homo sapiens, HepG2; MTT, 48 h; read-out: IC50 HepG-2
# Summary of the method: (§3)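 MTT added for 4 h, formazan dissolved in DMSO, absorbance at 590 nm. Viability relative to untreated cells; IC50 by probit analysis.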
# [16] = system: mammary gland breast cancer cell line (MCF-7); experiment: Antiproliferative activity, MTT assay; format: cell-based, human; conditions: for IC50: Homo sapiens, MCF7, MTT, 48 h, read-out: IC50 MCF-7; for Fold relative to doxorubicin (IC50): MCF-7
# Summary of the method: as §3
# [17] = system: S. aureus ATCC 33591; experiment: Inhibition zone against MDRB, agar plate diffusion; format: cell-based
# [18] = system: E. coli ATCC BAA-196; experiment: Inhibition zone against MDRB, agar plate diffusion; format: cell-based
# [19] = system: P. aeruginosa ATCC BAA-2111; experiment: Inhibition zone against MDRB, agar plate diffusion; format: cell-based
# [20] = target: S. aureus DNA Gyrase (Staphylococcus aureus, UniProt P0A0K8+P20831); experiment: DNA gyrase enzyme assay; format: biochemical; conditions: Mean ± SEM
# [21] = target: B. subtilis DNA Gyrase (Bacillus subtilis, UniProt P05652+P05653); experiment: DNA gyrase enzyme assay; format: biochemical; conditions: Mean ± SEM
# [22] = target: DHFR E. coli (Escherichia coli, UniProt P0ABQ4); experiment: Dihydrofolate reductase enzyme assay; format: biochemical; conditions: for Fold potential relative to Trimethoprim (IC50): DHFR
# [23] = Bacillus subtilis, read-out: MIC
# Chain of DHFR E. coli (P0ABQ4 whole entry): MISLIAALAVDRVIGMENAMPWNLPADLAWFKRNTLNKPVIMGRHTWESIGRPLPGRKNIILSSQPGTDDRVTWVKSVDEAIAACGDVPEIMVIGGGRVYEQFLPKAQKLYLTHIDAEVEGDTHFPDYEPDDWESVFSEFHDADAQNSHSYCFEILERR
# Chain of S. aureus DNA Gyrase (P20831 whole entry): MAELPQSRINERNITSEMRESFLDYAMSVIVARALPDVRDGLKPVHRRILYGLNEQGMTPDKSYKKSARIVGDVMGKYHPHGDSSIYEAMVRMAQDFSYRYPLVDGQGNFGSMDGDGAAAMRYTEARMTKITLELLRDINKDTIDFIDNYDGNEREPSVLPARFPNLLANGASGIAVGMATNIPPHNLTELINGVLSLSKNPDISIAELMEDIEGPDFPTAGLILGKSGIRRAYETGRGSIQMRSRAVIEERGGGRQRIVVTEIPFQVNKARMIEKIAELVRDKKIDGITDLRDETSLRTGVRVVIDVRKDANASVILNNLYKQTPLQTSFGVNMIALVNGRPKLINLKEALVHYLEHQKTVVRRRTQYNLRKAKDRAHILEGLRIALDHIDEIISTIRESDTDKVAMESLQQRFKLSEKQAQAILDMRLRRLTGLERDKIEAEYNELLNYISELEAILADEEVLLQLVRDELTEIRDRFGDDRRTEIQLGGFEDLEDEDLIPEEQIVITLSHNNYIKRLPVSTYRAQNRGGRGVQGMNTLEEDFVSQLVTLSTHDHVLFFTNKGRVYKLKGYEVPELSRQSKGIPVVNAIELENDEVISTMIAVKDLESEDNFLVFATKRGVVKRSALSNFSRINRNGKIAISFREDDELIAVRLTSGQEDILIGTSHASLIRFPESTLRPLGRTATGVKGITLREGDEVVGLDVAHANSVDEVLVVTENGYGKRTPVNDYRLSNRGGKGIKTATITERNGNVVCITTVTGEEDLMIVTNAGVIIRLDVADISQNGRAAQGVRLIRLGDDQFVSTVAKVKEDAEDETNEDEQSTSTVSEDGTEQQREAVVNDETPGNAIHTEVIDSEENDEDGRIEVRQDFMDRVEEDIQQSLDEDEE
# Chain of S. aureus DNA Gyrase (P0A0K8 whole entry): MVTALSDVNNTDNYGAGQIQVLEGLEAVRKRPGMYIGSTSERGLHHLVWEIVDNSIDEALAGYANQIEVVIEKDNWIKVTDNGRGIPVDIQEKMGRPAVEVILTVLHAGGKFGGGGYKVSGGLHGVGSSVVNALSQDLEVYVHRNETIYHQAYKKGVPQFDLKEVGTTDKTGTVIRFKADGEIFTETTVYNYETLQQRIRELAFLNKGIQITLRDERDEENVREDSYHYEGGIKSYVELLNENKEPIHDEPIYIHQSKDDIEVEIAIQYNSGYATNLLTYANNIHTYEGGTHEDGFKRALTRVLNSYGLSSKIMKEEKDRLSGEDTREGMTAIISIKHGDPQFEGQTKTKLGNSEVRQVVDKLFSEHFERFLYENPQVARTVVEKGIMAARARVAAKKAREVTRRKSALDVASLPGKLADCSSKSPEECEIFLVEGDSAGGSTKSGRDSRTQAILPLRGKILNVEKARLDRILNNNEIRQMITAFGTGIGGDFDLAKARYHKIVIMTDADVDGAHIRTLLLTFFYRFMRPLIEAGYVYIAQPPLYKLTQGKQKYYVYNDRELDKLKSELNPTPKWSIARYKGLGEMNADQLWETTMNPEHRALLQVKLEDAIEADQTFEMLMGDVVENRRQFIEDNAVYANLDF
# Chain of B. subtilis DNA Gyrase (P05652 whole entry): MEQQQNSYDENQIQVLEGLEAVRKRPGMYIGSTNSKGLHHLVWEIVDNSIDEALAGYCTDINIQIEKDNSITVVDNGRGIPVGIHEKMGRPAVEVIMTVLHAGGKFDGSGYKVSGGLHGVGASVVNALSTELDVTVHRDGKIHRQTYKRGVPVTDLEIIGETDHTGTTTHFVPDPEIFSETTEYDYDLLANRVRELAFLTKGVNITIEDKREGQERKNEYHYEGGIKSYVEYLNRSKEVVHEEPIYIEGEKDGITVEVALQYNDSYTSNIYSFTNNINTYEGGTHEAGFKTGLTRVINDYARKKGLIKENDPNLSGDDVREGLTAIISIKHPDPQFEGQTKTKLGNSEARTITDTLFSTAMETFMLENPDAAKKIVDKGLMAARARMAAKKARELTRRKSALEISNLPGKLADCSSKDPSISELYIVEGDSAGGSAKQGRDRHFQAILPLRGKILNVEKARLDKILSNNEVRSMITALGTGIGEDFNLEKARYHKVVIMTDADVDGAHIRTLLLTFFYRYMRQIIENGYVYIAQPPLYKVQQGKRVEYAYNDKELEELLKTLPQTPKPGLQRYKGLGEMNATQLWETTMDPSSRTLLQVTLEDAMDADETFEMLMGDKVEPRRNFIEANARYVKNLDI
# Chain of B. subtilis DNA Gyrase (P05653 whole entry): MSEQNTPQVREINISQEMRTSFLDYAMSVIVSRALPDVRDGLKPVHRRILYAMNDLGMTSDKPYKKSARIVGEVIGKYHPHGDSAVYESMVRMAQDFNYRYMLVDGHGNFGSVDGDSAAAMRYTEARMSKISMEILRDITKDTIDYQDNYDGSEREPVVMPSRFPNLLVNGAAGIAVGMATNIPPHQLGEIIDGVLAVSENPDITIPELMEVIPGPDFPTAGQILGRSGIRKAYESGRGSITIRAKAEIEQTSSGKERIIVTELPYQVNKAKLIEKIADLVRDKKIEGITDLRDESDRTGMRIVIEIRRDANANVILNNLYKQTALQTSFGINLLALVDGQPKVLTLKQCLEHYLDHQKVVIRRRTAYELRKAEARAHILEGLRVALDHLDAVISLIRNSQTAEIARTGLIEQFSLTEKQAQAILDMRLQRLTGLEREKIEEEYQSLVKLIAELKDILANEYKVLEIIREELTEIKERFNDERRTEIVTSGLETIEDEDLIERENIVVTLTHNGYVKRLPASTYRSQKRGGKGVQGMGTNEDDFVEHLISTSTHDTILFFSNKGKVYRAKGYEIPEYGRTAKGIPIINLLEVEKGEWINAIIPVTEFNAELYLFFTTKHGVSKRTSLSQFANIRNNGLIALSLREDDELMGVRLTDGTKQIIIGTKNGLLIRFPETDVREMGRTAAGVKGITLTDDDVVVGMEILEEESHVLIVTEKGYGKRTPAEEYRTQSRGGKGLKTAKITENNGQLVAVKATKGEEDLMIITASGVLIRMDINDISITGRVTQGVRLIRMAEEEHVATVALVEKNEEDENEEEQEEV
smiles,measurement,setting,value
"COc1ccc(Nc2n[nH]c(N=Cc3ccc(N4CCCCC4)cc3)c2C(N)=O)cc1 [8a, 3-(p-Methoxyphenylamino)-5-(4-(piperidin-1-yl)benzylideneamino)-1H-pyrazole-4-carboxamide]",zone of inhibition at 500 µg/mL,[1],27 ± 0.5 mm
same,zone of inhibition at 500 µg/mL,[2],25 ± 0.33 mm
same,zone of inhibition at 500 µg/mL,[3],23 ± 0.14 mm
same,zone of inhibition at 500 µg/mL,[4],25 ± 0.85 mm
same,zone of inhibition at 500 µg/mL,[5],24 ± 0.3 mm
same,zone of inhibition at 500 µg/mL,[6],26 ± 0.14 mm
same,MIC,[7],1.95 µg/mL
same,MBC,[7]; Bacillus subtilis,3.9 µg/mL
same,MIC,[7]; [23],1.92 µg/mL
same,MBC,[8],6.63 µg/mL
same,MIC,[8],3.9 µg/mL
same,Fold more than Tetracycline (MIC),[9],16 fold
same,MBC,[9],1.94 µg/mL
same,MIC,[9],0.97 µg/mL
same,Fold more than Tetracycline (MIC),[10],11.2 fold
same,MBC,[10],10.6 µg/mL
same,MIC,[10],5.57 µg/mL
same,MIC,[11],7.81 µg/mL
same,MBC,[11],12.5 µg/mL
same,MBC,[12],5.57 µg/mL
same,MIC,[12],5.57 µg/mL
same,Fold activity in comparison with Amphotericin B (MIC),[13]; C. albicans,2 fold
same,MIC,[13],7.81 µg/mL
same,MFC,[13]; C. albicans,15.6 µg/mL
same,Fold activity in comparison with Amphotericin B (MIC),[14],2 fold
same,MFC,[14],27.8 µg/mL
same,MIC,[14],15.6 µg/mL
same,IC50,[15],2250 ± 850 nM
same,IC50,[16],1980 ± 1550 nM
same,Fold relative to doxorubicin (IC50),[16],0.979 fold
same,Mean Diameter of Inhibition Zone against MDRB,[17],24 ± 0.12 mm
same,Mean Diameter of Inhibition Zone against MDRB,[18],25 ± 0.46 mm
same,Mean Diameter of Inhibition Zone against MDRB,[19],27 ± 0.54 mm
same,IC50,[20],7.69 ± 0.23 µM
same,IC50,[21],15.3 ± 0.5 µM
same,IC50,[22],3.98 ± 0.61 µM
same,Fold potential relative to Trimethoprim (IC50),[22],1.3 fold
"COc1ccc(Nc2n[nH]c(N=Cc3cc(OC)c(OC)c(OC)c3)c2C(=O)Nc2ccccc2)cc1 [9b, 3-(p-Methoxyphenylamino)-N-phenyl-5-(3,4,5-trimethoxybenzylideneamino)-1H-pyrazole-4-carboxamide]",zone of inhibition at 500 µg/mL,[1],25 ± 0.87 mm
same,zone of inhibition at 500 µg/mL,[2],24 ± 0.35 mm
same,zone of inhibition at 500 µg/mL,[3],23 ± 0.2 mm
same,zone of inhibition at 500 µg/mL,[4],21 ± 0.55 mm
same,zone of inhibition at 500 µg/mL,[5],19 ± 0.25 mm
same,zone of inhibition at 500 µg/mL,[6],21 ± 0.3 mm
same,Fold more potent than Tetracycline (MIC),[7],6 fold
same,MBC,[7]; Bacillus subtilis,9.2 µg/mL
same,MIC,[7]; [23],4.5 µg/mL
same,MBC,[8],7.41 µg/mL
same,MIC,[8],3.9 µg/mL
same,MBC,[9],14.1 µg/mL
same,MIC,[9],7.81 µg/mL
same,MBC,[10],31.2 µg/mL
same,MIC,[10],15.6 µg/mL
same,MIC,[11],5.57 µg/mL
same,MBC,[11],10.6 µg/mL
same,MBC,[12],15.6 µg/mL
same,MIC,[12],7.81 µg/mL
same,Fold activity in comparison with Amphotericin B (MIC),[13]; C. albicans,2 fold
same,MFC,[13]; C. albicans,12.5 µg/mL
same,MIC,"[13]; C. albicans, read-out: MIC",7.81 µg/mL
same,Fold activity in comparison with Amphotericin B (MIC),[14],2 fold
same,MFC,[14],26.6 µg/mL
same,MIC,[14],15.6 µg/mL
same,IC50,[15],1920 ± 490 nM
same,IC50,[16],2210 ± 360 nM
same,Fold relative to doxorubicin (IC50),[16],0.877 fold
same,Mean Diameter of Inhibition Zone against MDRB,[17],25 ± 0.12 mm
same,Mean Diameter of Inhibition Zone against MDRB,[18],22 ± 0.2 mm
same,Mean Diameter of Inhibition Zone against MDRB,[19],24 ± 0.88 mm
same,IC50,[20],10.5 ± 0.55 µM
same,IC50,[21],14.2 ± 0.42 µM
same,IC50,[22],6.48 ± 0.33 µM
same,Fold potential relative to Trimethoprim (IC50),[22],0.80 fold
